Source: US12286632B2, “Rationally-designed synthetic peptide shuttle agents for delivering polypeptide cargos from an extracellular space to the cytosol and/or nucleus of a target eukaryotic cell, uses thereof, methods and kits relating to same” (Feldan Bio Inc., priority 2016, dated 2025)

Columns and labels:
[1] = tested on: CHO cells; assay: GFP-NLS transduction in different adherent and suspension cells (flow cytometry, Pos cells % and viability %); assay type: cell-based, Chinese hamster; details: Protocol B, 35 μM shuttle, 5 μM GFP-NLS, 10 seconds
Protocol: (§1) The media in wells was removed, cells were washed once with PBS previously warmed at 37° C., and the shuttle agent/cargo mixture was then added to cover all cells for the desired length of time. The shuttle agent/cargo mixture in wells was removed, the cells were washed once with PBS, and fresh complete medium was added. Before analysis, the cells were washed once with PBS and fresh complete medium was added.
(§2) The ability of the shuttle agent His-CM18-PTD4 to deliver GFP-NLS to the nuclei of different adherent and suspension cells using Protocols B (adherent cells) or C (suspension cells) as described in Example 9.1 was examined. The cell lines tested included: HeLa, Balb3T3, HEK 293T, CHO, NIH3T3, Myoblasts, Jurkat, THP-1, CA46, and HT2 cells, which were cultured as described in Example 1. GFP-NLS (5 μM; see Example 5.1) was co-incubated with 35 μM of His-CM18-PTD4 and exposed to adherent cells for 10 seconds (Protocol B), or was co-incubated with 5 μM of His-CM18-PTD4 and exposed to suspension cells for 15 seconds (Protocol C). […] “Pos cells (%)” is the mean percentages of all cells that emanate a GFP signal.

[2] = tested on: Myoblasts; assay: as above; assay type: cell-based, Human; details: Protocol B, 35 μM shuttle, 5 μM GFP-NLS, 10 seconds
Protocol: as §1, §2

[3] = tested on: HEK 293T cells; assay: as above; assay type: cell-based, Human; details: Protocol B, 35 μM shuttle, 5 μM GFP-NLS, 10 seconds
Protocol: as §1, §2

[4] = tested on: HeLa cells; assay: Plasmid DNA (pEGFP-C1) transfection by peptides (% cells with GFP signal, cell viability); details: DNA transfection in HeLa cells using peptides; pEGFP-C1 plasmid
[5] = tested on: Jurkat cells; assay: GFP-NLS transduction in different adherent and suspension cells (flow cytometry, Pos cells % and viability %); assay type: cell-based, Human; details: Protocol C, 5 μM shuttle, 5 μM GFP-NLS, 15 seconds
Protocol: as §2

[6] = tested on: CA46 cells; assay: as above; assay type: cell-based, Homo sapiens; details: Protocol C, 5 μM shuttle, 5 μM GFP-NLS, 15 seconds
Protocol: as §2

[7] = tested on: THP-1 cells; assay: GFP-NLS protein transduction assay (flow cytometry: Pos cells %, viability %, relative fluorescence intensity; microscopy)
Protocol: One day before the transduction assay was performed, cells in exponential growth phase were harvested and plated in a 96-well plate (20,000 cells per well). The cells were incubated overnight in appropriate growth media containing FBS (see Example 1). The next day, in separate sterile 1.5 mL tubes, cargo protein at the indicated concentration was pre-mixed (pre-incubated) for 1 or 10 min (depending on the protocol) at 37° C. with the peptide(s) to be tested shuttle agents (0.5 to 5 μM) in 50 μL of fresh medium without serum (unless otherwise specified). The media in wells was removed and the cells were washed three times with freshly prepared phosphate buffered saline (PBS) previously warmed at 37° C. The cells were incubated with the cargo protein/shuttle agent mixture at 37° C. for the indicated time (e.g., 1, 5 or 60 min). After the incubation, the cells were quickly washed three times with freshly prepared PBS and/or heparin (0.5 mg/mL) previously warmed at 37° C. The washes with heparin were required for human THP-1 blood cells to avoid undesired cell membrane-bound protein background in subsequent analyses (microscopy and flow cytometry). The cells were finally incubated in 50 μL of fresh medium with serum at 37° C. before analysis.
One day before the transduction assay was performed, suspension cells in exponential growth phase were harvested and plated in a 96-well plate (20,000 cells per well). The cells were incubated overnight in appropriate growth media containing serum (see Example 1). The next day, in separate sterile 1.5-mL tubes, peptides were diluted in sterile distilled water at room temperature (if the cargo is or comprised a nucleic acid, nuclease-free water was used). Cargo protein(s) were then added to the peptides and, if necessary, sterile PBS or cell culture medium (serum-free) was added to obtain the desired concentrations of shuttle agent and cargo in a sufficient final volume to resuspend the cells (e.g., 10 to 100 μL per well in a 96-well plate). The shuttle agent/peptide was then immediately used for experiments. At least three controls were included for each experiment, including: (1) peptide alone (e.g., at highest concentration tested); (2) cargo alone; and (3) without any cargo or shuttle agent. The cells were centrifuged for 2 minutes at 400g, the medium was then removed and the cells were resuspended in PBS previously warmed at 37° C. The cells were centrifuged again 2 minutes at 400g, the PBS removed, and the cells were resuspended with the cargo protein/peptide mixture at 37° C. for the desired length of time. After that, 200 μL of complete medium was added directly on the cells. Cells were centrifuged for 2 minutes at 400g and the medium was removed. The pellet was resuspended and washed in 200 μL of PBS previously warmed at 37° C. After another centrifugation, the PBS was removed and the cells were resuspended in 50 μL of trypsin-EDTA solution for 2 min. 200 of complete medium was directly added and cells were centrifuged for 2 minutes at 400g. The medium was removed and the cells were resuspended in 200 μL of complete medium.
The cells incubated in 50 μL of fresh medium were directly observed by microscopy (Bright-field and fluorescence) at different power fields (4× to 40×). The cells were observed using a CoolSNAP-PRO™ camera (Series A02D874021) and images were acquired using the Image-Proplus™ software.
The fluorescence of GFP was quantified using flow cytometry (Accuri C6, Becton, Dickinson and Company (BD)).

[8] = THP-1, Protocol C, 5 μM shuttle, 5 μM GFP-NLS, 15 seconds

CC[C@H](C)[C@H](NC(=O)[C@H](CCCCN)NC(=O)[C@H](CCCCN)NC(=O)[C@H](Cc1ccccc1)NC(=O)[C@H](CC(C)C)NC(=O)[C@H](CCCCN)NC(=O)[C@H](Cc1c[nH]c2ccccc12)NC(=O)[C@H](CCCCN)NC(=O)[C@H](Cc1c[nH]cn1)NC(=O)[C@H](Cc1c[nH]cn1)NC(=O)[C@H](Cc1c[nH]cn1)NC(=O)[C@H](Cc1c[nH]cn1)NC(=O)[C@H](Cc1c[nH]cn1)NC(=O)[C@@H](N)Cc1c[nH]cn1)C(=O)NCC(=O)N[C@@H](C)C(=O)N[C@H](C(=O)N[C@@H](CC(C)C)C(=O)N[C@@H](CCCCN)C(=O)N[C@H](C(=O)N[C@@H](CC(C)C)C(=O)N[C@H](C(=O)N[C@H](C(=O)NCC(=O)N[C@@H](Cc1ccc(O)cc1)C(=O)N[C@@H](C)C(=O)N[C@@H](CCCNC(=N)N)C(=O)N[C@@H](C)C(=O)N[C@@H](C)C(=O)N[C@@H](C)C(=O)N[C@@H](CCCNC(=N)N)C(=O)N[C@@H](CCC(N)=O)C(=O)N[C@@H](C)C(=O)N[C@@H](CCCNC(=N)N)C(=O)N[C@@H](C)C(=O)O)[C@@H](C)O)[C@@H](C)O)C(C)C)C(C)C [His-CM18-PTD4]
Cell viability (%) (±St. Dev.; n = 3) [1]: 92.8 ± 0.1% | Mean % cells with GFP signal (±St. Dev.; n = 3) [1]: 53.7 ± 4.6% | Cell viability (%) (±St. Dev.; n = 3) [2]: 23.5 ± 1.1% | Mean % cells with GFP signal (±St. Dev.; n = 3) [2]: 25.6 ± 2.6% | Cell viability (%) (±St. Dev.; n = 3) [3]: 95.3 ± 1.2% | Mean % cells with GFP signal (±St. Dev.; n = 3) [3]: 55.3 ± 0.2% | Mean % cells with GFP signal (±St. Dev.; n = 3) [4]: 0.04 ± 0.01% | Cell viability (%) (±St. Dev.; n = 3) [5]: 73.6 ± 0.7% | Mean % cells with GFP signal (±St. Dev.; n = 3) [5]: 30.7 ± 2.2% | Cell viability (%) (±St. Dev.; n = 3) [6]: 71.6 ± 1.0% | Mean % cells with GFP signal (±St. Dev.; n = 3) [6]: 24.4 ± 0.6% | GFP-NLS intracellular delivery after repeated daily treatments (in words) ([7]; 0.5 or 0.8 μM shuttle, 150 min each day, in the presence of serum): result in intracellular delivery of GFP-NLS | Mean % cells with GFP signal (±St. Dev.; n = 3) ([7]; Protocol C, THP-1, 1 μM shuttle, 5 μM GFP-NLS, incubation 15 sec): 23.7 ± 0.2% | Mean % cells with GFP signal (±St. Dev.; n = 3) ([7]; Protocol C, THP-1, 1 μM shuttle, 5 μM GFP-NLS, incubation 30 sec): 53 ± 0.3% | Mean % cells with GFP signal (±St. Dev.; n = 3) ([7]; Protocol C, THP-1, 1 μM shuttle, 5 μM GFP-NLS, incubation 60 sec): 69.6 ± 4.2% | Mean % cells with GFP signal (±St. Dev.; n = 3) ([7]; Protocol C, THP-1, 1 μM shuttle, 5 μM GFP-NLS, incubation 120 sec): 89 ± 0.8% | Cell viability (%) (±St. Dev.; n = 3) [7, 8]: 64.1 ± 4.5% | Mean % cells with GFP signal (±St. Dev.; n = 3) [7, 8]: 64.1 ± 1.6% | Mean % cells with GFP signal (±St. Dev.; n = 3) ([7]; THP-1, serum, daily 150 min, 0.5 μM shuttle, 5 μM GFP-NLS, 1 day exposure): 12.1 ± 1.5% | Mean % cells with GFP signal (±St. Dev.; n = 3) ([7]; THP-1, serum, daily 150 min, 0.5 μM shuttle, 5 μM GFP-NLS, 3 days exposure): 73.4 ± 1.1% | Mean % cells with GFP signal (±St. Dev.; n = 3) ([7]; THP-1, serum, daily 150 min, 0.8 μM shuttle, 1 μM GFP-NLS, 1 day exposure): 1.6 ± 0.2% | Mean % cells with GFP signal (±St. Dev.; n = 3) ([7]; THP-1, serum, daily 150 min, 0.8 μM shuttle, 1 μM GFP-NLS, 3 days exposure): 6.5 ± 0.9% | Mean % cells with GFP signal (±St. Dev.; n = 3) ([7]; THP-1, serum, daily 150 min, 0.8 μM shuttle, 2.5 μM GFP-NLS, 1 day exposure): 12.2 ± 0.9% | Mean % cells with GFP signal (±St. Dev.; n = 3) ([7]; THP-1, serum, daily 150 min, 0.8 μM shuttle, 2.5 μM GFP-NLS, 3 days exposure): 62.4 ± 3.5% | Mean % cells with GFP signal (±St. Dev.; n = 3) ([7]; Table 9.3, Protocol A, THP-1, shuttle 1 μM, GFP-NLS 5 μM, 1 hour): 14.2 ± 2.2% | Mean % cells with GFP signal (±St. Dev.; n = 3) ([7]; Table 9.3, Protocol C, THP-1, shuttle 0.5 μM, GFP-NLS 5 μM, 15 seconds): 34.9 ± 3.8% | Mean % cells with GFP signal (±St. Dev.; n = 3) ([7]; Table 9.3, Protocol C, THP-1, shuttle 5 μM, GFP-NLS 5 μM, 15 seconds): 64.1 ± 1.6% | GFP-NLS intracellular delivery (microscopy / FACS, in words) ([7]; shuttle 5 μM, GFP-NLS 5 μM, 15 seconds, Protocol C): successfully delivered intracellularly
